# Results published in US20200317660A1, “Quinazolinone Compound and Application Thereof” (LUOXIN PHARMACEUTICAL (SHANGHAI) CO., LTD., priority 2017, published 2020).
# Read-outs that look alike come from different tables or passages of the source.
# Tests used:
# PI3Kα = molecular target: T1, PI3Kα (Homo sapiens, UniProt P42336); assay: In vitro test of enzyme activity (ADP-Glo lipokinase), PI3K alpha; type: biochemical; conditions: 40 μM ATP, 50 μM PIP2:3PS, 120 min
# T1 construct: purchased Millipore 14-602-K
# T1 sequence (P42336 whole entry): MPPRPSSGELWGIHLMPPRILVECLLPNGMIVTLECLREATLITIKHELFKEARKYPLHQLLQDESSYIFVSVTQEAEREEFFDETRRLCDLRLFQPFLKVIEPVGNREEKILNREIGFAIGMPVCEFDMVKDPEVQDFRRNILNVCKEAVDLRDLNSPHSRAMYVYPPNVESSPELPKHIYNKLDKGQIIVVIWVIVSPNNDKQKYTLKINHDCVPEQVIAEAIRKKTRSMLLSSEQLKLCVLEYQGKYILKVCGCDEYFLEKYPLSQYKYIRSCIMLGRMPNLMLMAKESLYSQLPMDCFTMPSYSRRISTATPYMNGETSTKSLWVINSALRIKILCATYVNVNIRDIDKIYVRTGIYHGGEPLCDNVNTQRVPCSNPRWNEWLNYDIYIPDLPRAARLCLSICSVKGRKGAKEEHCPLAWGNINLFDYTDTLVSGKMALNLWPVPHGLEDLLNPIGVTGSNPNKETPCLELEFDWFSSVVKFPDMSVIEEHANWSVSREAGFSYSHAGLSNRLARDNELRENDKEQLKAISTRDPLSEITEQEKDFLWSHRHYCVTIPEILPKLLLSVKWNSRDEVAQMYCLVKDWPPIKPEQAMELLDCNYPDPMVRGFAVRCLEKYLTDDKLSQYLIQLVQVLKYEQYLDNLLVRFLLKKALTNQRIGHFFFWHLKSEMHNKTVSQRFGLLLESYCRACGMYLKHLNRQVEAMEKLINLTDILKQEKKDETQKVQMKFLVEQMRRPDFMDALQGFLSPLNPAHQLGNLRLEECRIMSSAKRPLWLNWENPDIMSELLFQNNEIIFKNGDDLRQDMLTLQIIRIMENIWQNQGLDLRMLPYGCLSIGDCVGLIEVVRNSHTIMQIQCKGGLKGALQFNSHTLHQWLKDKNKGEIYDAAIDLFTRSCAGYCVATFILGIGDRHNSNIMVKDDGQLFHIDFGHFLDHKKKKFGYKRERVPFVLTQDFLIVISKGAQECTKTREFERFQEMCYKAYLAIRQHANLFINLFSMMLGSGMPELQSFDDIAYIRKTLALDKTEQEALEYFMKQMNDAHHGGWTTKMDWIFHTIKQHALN
# T1 sequence (P27986 whole entry partner): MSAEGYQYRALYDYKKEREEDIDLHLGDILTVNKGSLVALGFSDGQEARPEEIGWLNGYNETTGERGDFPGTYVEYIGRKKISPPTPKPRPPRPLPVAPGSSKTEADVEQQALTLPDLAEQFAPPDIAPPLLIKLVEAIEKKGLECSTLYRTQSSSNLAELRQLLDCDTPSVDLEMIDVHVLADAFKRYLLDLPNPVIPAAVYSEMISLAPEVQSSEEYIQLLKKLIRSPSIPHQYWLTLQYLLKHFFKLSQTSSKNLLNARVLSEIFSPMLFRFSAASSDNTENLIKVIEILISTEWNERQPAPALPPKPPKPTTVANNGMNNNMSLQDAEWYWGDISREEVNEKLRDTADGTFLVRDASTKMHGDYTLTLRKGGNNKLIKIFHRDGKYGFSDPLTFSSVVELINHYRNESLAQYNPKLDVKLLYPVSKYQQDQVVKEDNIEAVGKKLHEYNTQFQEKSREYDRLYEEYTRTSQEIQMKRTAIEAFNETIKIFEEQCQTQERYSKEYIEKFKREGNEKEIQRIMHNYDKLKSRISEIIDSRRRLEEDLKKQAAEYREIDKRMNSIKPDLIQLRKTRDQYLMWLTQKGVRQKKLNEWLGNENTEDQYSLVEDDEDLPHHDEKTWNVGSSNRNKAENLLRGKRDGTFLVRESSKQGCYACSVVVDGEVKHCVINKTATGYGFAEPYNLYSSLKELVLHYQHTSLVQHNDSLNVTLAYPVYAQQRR
# [1] = tested on: human breast cancer BT-474 cells; assay: Subcutaneous xenograft tumor model of human breast cancer BT-474 cells; type: in vivo, BALB/c nude mouse; conditions: BT-474 xenograft, 30 mpk
# Experimental: 2. In vivo drug-efficacy study
# (1) BALB/c nude mouse subcutaneous xenograft tumor model of human breast cancer BT-474 cells
# Human breast cancer BT-474 cells (ATCC, Manassas, Va., batch number: HTB-20) were subjected to in vitro monolayer culture, and the culture conditions were: Hybri-Care medium with 10% fetal bovine serum and 1% double antibody, 37° C. and 5% CO2 incubator. The cells were passaged by digestion with trypsin-EDTA twice a week. When the cells saturation reached 80-90%, and the quantity met the requirement, the cells was collected, counted and inoculated.
# Tumor cell inoculation (tumor inoculation)
# The subcutaneous implantation of the estrogen tablets (Innovative Research, Cat # SE-121, 0.36 mg/60-day release) was carried out one day before cell inoculation. 0.2 mL […] of BT-474 cells (with matrigel, volume 1:1) was subcutaneously inoculated into the right back of each mouse. When the average tumor volume reached 188 mm^3, the administration was started in groups.
# Preparation of Test Substance […]
# The experimental index was to evaluate whether the tumor growth was inhibited, delayed or cured. The diameter of the tumor was measured with a vernier caliper twice a week. […]
# The antitumor efficacy of the compound was evaluated by TGI (%) or relative tumor proliferation rate T/C (%). […]
# PI3Kβ = molecular target: T2, PI3Kβ (Homo sapiens, UniProt P42338); assay: In vitro test of enzyme activity (ADP-Glo lipokinase), PI3K beta; type: biochemical; conditions: 40 μM ATP, 50 μM PIP2:3PS, 120 min
# T2 construct: purchased Promega V1751
# T2 sequence (P42338 whole entry): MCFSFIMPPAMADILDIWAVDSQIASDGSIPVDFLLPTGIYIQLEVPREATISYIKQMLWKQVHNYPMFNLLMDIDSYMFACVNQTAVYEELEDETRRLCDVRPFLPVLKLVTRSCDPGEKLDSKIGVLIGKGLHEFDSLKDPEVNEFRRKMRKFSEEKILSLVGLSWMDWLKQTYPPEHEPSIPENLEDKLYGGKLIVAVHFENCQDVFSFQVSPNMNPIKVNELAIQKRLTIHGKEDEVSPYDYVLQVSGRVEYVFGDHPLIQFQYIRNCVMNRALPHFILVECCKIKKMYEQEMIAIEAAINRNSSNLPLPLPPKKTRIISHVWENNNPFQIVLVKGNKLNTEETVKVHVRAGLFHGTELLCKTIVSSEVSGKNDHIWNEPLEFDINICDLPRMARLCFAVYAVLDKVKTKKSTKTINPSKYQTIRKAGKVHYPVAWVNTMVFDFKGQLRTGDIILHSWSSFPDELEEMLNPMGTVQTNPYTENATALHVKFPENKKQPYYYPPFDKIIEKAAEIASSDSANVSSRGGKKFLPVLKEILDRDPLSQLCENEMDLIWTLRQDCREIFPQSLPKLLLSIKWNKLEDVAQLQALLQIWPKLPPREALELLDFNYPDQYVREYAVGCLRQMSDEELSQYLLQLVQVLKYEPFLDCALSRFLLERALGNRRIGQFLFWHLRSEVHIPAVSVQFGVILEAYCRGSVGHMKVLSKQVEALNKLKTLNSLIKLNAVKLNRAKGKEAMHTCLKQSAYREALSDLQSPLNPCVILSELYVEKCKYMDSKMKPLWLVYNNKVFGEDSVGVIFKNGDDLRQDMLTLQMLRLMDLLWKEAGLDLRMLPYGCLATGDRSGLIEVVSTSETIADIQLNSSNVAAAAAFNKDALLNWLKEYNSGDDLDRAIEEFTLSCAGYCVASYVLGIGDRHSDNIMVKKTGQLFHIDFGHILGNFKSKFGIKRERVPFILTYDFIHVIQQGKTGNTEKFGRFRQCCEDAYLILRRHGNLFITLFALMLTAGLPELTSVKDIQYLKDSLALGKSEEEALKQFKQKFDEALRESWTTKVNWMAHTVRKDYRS
# T2 sequence (P27986 whole entry partner): as the sequence (P27986 whole entry partner) above
# PI3Kγ = molecular target: T3, PI3Kγ (Homo sapiens, UniProt P48736); assay: In vitro test of enzyme activity (ADP-Glo lipokinase), PI3K gamma; type: biochemical; conditions: 25 μM ATP, 50 μM PIP2:3PS, 120 min
# T3 construct: purchased Millipore 14-558-K
# T3 sequence (P48736 whole entry): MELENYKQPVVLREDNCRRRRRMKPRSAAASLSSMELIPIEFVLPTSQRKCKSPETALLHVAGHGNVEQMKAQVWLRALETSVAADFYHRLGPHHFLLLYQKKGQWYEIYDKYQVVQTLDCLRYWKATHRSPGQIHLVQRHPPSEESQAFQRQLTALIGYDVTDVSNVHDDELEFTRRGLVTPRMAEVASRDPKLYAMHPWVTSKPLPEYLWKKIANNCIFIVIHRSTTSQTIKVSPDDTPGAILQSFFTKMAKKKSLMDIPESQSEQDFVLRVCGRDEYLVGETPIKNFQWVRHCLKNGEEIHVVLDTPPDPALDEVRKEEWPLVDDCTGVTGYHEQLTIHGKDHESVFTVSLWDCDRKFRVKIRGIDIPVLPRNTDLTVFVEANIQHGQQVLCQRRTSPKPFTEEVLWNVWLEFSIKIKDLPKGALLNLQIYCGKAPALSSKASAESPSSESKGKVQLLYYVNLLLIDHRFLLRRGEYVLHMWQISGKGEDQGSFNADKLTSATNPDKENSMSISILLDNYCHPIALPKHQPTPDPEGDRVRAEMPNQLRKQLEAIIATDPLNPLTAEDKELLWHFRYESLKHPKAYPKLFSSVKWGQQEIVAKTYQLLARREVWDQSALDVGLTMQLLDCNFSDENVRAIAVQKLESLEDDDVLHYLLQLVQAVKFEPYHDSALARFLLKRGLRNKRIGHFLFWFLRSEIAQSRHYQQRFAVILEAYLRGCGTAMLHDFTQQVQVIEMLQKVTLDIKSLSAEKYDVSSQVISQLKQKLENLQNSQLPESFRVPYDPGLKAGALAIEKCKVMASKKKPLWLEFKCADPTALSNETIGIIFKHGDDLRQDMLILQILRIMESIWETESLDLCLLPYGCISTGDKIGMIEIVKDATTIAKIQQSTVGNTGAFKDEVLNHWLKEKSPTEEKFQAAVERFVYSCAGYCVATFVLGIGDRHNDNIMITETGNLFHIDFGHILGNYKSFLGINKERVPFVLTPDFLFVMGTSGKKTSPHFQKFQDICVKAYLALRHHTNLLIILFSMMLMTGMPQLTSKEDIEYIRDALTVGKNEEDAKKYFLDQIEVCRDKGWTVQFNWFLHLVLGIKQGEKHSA
# PI3Kδ = molecular target: T4, PI3Kδ (Homo sapiens, UniProt O00329); assay: In vitro test of enzyme activity (ADP-Glo lipokinase), PI3K delta; type: biochemical; conditions: 40 μM ATP, 50 μM PIP2:3PS, 120 min
# T4 construct: purchased Millipore 14-604-K
# T4 sequence (O00329 whole entry): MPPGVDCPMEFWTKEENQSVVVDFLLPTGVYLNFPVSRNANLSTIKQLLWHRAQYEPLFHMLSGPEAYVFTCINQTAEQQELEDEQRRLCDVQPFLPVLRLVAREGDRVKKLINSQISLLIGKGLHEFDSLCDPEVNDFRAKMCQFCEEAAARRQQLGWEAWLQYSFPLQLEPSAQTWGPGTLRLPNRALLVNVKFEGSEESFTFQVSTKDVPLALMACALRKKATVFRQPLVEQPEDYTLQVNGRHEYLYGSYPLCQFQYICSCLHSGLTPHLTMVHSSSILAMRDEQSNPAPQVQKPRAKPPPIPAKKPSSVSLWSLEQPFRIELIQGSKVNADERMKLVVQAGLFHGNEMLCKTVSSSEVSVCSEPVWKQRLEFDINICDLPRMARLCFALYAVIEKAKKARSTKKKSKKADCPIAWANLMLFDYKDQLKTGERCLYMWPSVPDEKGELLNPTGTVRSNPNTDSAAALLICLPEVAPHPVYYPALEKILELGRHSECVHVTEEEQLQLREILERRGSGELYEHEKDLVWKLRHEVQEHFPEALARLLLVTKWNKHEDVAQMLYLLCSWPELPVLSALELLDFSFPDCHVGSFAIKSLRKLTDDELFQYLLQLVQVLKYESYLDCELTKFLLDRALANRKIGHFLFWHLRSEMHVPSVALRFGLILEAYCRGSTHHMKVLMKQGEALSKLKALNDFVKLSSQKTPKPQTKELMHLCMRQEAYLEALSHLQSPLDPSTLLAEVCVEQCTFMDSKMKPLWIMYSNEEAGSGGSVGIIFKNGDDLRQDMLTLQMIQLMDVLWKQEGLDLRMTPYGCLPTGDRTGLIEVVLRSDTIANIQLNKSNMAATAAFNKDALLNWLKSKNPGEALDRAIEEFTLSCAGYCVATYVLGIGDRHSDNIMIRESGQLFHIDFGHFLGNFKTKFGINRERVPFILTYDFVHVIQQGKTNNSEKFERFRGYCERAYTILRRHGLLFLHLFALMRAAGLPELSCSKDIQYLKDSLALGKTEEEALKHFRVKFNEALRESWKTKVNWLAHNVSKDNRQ
# T4 sequence (P27986 whole entry partner): as the sequence (P27986 whole entry partner) above
# [2] = tested on: phosphorylation of PI3K downstream protein Akt in MCF7 cells; assay: In vitro test of cells activity: ELISA of Akt phosphorylation in MCF7 cells; type: cell-based; conditions: 2 h compound, insulin 10 μg/mL stimulation, pAkt ELISA, read-out: MCF7 Cell IC50
# Experimental: 2. In vitro test of cells activity
# By the method of ELISA, the inhibition level of the test compound on the phosphorylation of PI3K downstream protein Akt in the signaling pathway was determined in MCF7 cells line to reflect the cells activity of the compound.
# Cell culture medium: complete cell culture medium (RPMI 1640+10% serum+1% L-glutamine+1% double antibody)
# Serum-free medium (without serum, RPMI 1640+1% L-glutamine+1% double antibody)
# The detailed procedures areas follows:
# (1) MCF7 cells (ATCC® HTB-22™) were inoculated into a 96-well plate at 100 μL of cell complete medium per well (2.5*10^4 cells per well), and the cells were incubated at 37° C. and 5% CO2 for 24 hours.
# (2) The complete cell culture medium was replaced with 100 μL of serum-free medium, and incubated for starvation overnight.
# (3) The compound was prepared (The initial concentration of the compound is 1 mM, which was subjected to a three-fold dilution in 10 concentrations, and the compound of each concentration was then diluted 100-fold with serum-free medium). 25 μL of the diluted compound was added to the cells orifice plate.
# (4) The cells were incubated at 37° C. and 5% CO2 for 2 hours.
# (5) The cells in the well plate were stimulated with 10 μg/mL insulin (Sigma # I9278-5 mL), incubated for 30 minutes, and then centrifuged at 1000 rpm for 5 minutes at room temperature.
# (6) 250 μL of 1× balanced salt solution (Invitrogen, #14065-056, 4° C., containing 1 mM/L Na3VO4) was added to each well to wash the cells once.
# (7) 100 μL of lysis buffer (trimethylolaminomethane hydrochloride, Invitrogen, #15567-1000 ml) was added to each well, shaken at 4° C. for 60 minutes, and then centrifuged at 4000 rpm for 4 minutes.
# (8) The following procedures were carried out according to the instructions of ELISA kit (TGR BioSciences # EKT002).
# [3] = In vivo DMPK study in mice after a single administration; parameters: species or system female Balb/c mice; conditions: oral, 10 mpk
# Experimental: Experimental objective: female Balb/c mice were used as the test animals, and the blood concentration of the compound was determined and the pharmacokinetic behavior was evaluated after a single administration.
# Experimental operation: 12 healthy adult female Balb/c mice were selected, 6 for intravenous injection group and 6 for oral administration group. The compound to be tested was mixed with an appropriate amount of intravenous injection group vehicle (10% HP-betaCD: 10% solutol=1:1, pH=8), vortex-mixed and sonicated to prepare a 1.0 mg/mL clear solution, followed by filtration for subsequent use; the vehicle in the oral group was 0.5% MC/0.2% Tw80. After the test compound and the vehicle were mixed, it was vortex-mixed and sonicated to prepare a 1.0 mg/mL homogeneous suspension for subsequent use. After an intravenous administration at a dose of 1 mg/kg or an oral administration at the dose of 2 mg/kg and 10 mg/kg, whole blood of the mice was collected for a certain period of time to prepare plasma. The drug concentration was analyzed by LC-MS/MS method, and Phoenix WinNonlin software was used (Pharsight, USA) to calculate the pharmacokinetic parameters.
# Cmax: the highest concentration of the drug in the body; F %: oral bioavailability; Oral DNAUC: area under the dose normalization curve; Vd: apparent volume of distribution; Cl: clearance rate; T1/2: half-life.
# PI3K = conditions: literature statement; cited from earlier work
IC50 (PI3Kα),IC50 (PI3Kβ),IC50 (PI3Kγ),IC50 (PI3Kδ),IC50 [2],Cmax [3],Oral DNAUC (area under the dose normalization curve) [3],"IC50 ([2]; Homo sapiens, MCF7, 2 h)",Structure (SMILES),TGI % [1],inhibitory effect on PI3K (PI3K)
5.49 nM,589 nM,54.2 nM,18.7 nM,56.1 nM,,,,"COc1ncc(-c2ccc3ncn(CC(C)C(=O)NCC(F)(F)F)c(=O)c3c2)cc1NS(=O)(=O)c1ccc(F)cc1Cl (single isomer, unassigned) [WX058]",60.0%,
0.95 nM,166 nM,8.21 nM,6.34 nM,51.4 nM,25.9 µM,4867 nM · h/mpk,,"CNC(=O)C(C)Cn1cnc2ccc(-c3cnc(OC)c(NS(=O)(=O)c4cc(Cl)ccc4Cl)c3)cc2c1=O (single isomer, unassigned) [WX183]",,
2.22 nM,278 nM,31.4 nM,18.8 nM,17.2 nM,8.41 µM,734 nM · h/mpk,,"CNC(=O)C(C)Cn1cnc2ccc(-c3cnc(OC)c(NS(=O)(=O)c4cc(C)ccc4Cl)c3)cc2c1=O (single isomer, unassigned) [WX214]",,
1.8 nM,361 nM,29.7 nM,20.7 nM,12.6 nM,6.88 µM,1300 nM · h/mpk,,"CNC(=O)C(C)Cn1cnc2ccc(-c3cnc(OC)c(NS(=O)(=O)c4cc(Cl)ccc4C)c3)cc2c1=O (single isomer, unassigned) [WX222]",,
74.5 nM,168 nM,,,,,,230 nM,"COc1ncc(-c2ccc3ncn(CCN(C)C)c(=O)c3c2)cc1NS(=O)(=O)c1ccc(F)cc1 [R011, reference compound]",,good inhibitory effect
13.9 nM,67.9 nM,,,,,,> 1000 nM,"CCN(CC)CCn1cnc2ccc(-c3cnc(OC)c(NS(=O)(=O)c4ccc(F)cc4F)c3)cc2c1=O [R012, reference compound]",,good inhibitory effect
